Legend:
J82 = experiment: MTT cytotoxicity test, J82 (growth inhibition); assay type: cell-based; conditions: Homo sapiens; 1 μg/ml; J82 (bladder); relative to the controls; read-out: Percentage inhibition of growth J82
Experimental: (§1) Thus, the cytotoxic activity of the products was evaluated using the MTT test [T. Mosman, J. Immunol. […] The amount of formazan formed (and consequently the intensity of the color obtained) is directly proportional to the number of living cells present in the culture medium at the time of the test. The lines used are of human origin, and are marketed by the American Type Cell Collection (ATCC), the reference body for the supply of standardized strains.
(§2) The experimental procedure used is essentially that described by C.
(§3) The results are expressed in the form of a percentage inhibition of growth relative to the controls.

MCF-7 = experiment: MTT cytotoxicity test, MCF-7 (growth inhibition); assay type: cell-based; conditions: Homo sapiens, MCF7; 1 μg/ml; MCF-7 (breast); relative to the controls; read-out: Percentage inhibition of growth MCF-7
Experimental: as §1, §2, §3

MXT adenocarcinoma = experiment: in vivo test on MXT adenocarcinoma grafted in B6D2F1 mice; conditions: for activity on the MXT model: in words, MXT adenocarcinoma model
From the text: The antitumor properties of the products of the invention were confirmed by in vivo tests, in particular on the model of mammalian MXT adenocarcinoma,which is a solid tumor that is particularly insensitive to anticancer agents [C. S. Watson, D. Medina, J. H. Clark, Cancer Res., 37, 3344 (1977); W. T. Bradher and C. A. Claridge, "Antineoplastic Agents", Wiley-Interscience (1984); T. W. Redding and A. V. Schally, Proc. Natl. Acad. Sci. U.S.A., 80, 1459 (1983)].
In this model, mice of type B6D2F1 are grafted by injection (subcutaneous) of a tumor fragment of about 10 mm^3 originating from an MXT tumor. The test products are administered via the i.p. route starting from the 17th day after the graft.

T24 = experiment: MTT cytotoxicity test, T24 (growth inhibition); assay type: cell-based; conditions: Homo sapiens, T-24; 1 μg/ml; T24 (bladder); relative to the controls; read-out: Percentage inhibition of growth T24
Experimental: as §1, §2, §3

T47D = experiment: MTT cytotoxicity test, T47D (growth inhibition); assay type: cell-based; conditions: Homo sapiens; 1 μg/ml; T47D (breast); relative to the controls; read-out: Percentage inhibition of growth T47
Experimental: as §1, §2, §3

tubulin = experiment: inhibition of polymerization of tubulin into microtubules (Weisenberg); assay type: biochemical; conditions: variations in optical density; read-out: IC50 (concentration which causes 50% inhibition of the polymerization)
From the text: This property was confirmed by measuring the inhibition of polymerization of tubulin into microtubules in the presence of the compounds of the invention, according to the method described by R. C. Weisenberg (Science 177, 1196-7, 1972). The results are expressed as a concentration of product which causes 50% inhibition of the polymerization. This phenomenon is readily monitored and quantified via the variations in optical density.

| Compound | inhibition at 1 µg/mL (J82) [%] | inhibition at 1 µg/mL (MCF-7) [%] | reduction in tumor size relative to the untreated controls (MXT adenocarcinoma; 9×40 mg/kg, i.p., starting from the 17th day after the graft) [%] | inhibition at 1 µg/mL (T24) [%] | inhibition at 1 µg/mL (T47D) [%] | IC50 (tubulin) [nM] | activity on the MXT model (MXT adenocarcinoma) |
| --- | --- | --- | --- | --- | --- | --- | --- |
| CC[C@]12C=CCN3CC[C@@]4(c5cc([C@@]6(C(=O)OC)C[C@@H]7CC(C(C)(F)F)CN(Cc8c6[nH]c6ccccc86)C7)c(OC)cc5N(C)[C@H]4[C@@](O)(C(=O)OC)[C@@H]1OC(C)=O)[C@@H]32 (stereo partly drawn) [Example 1, 19',19'-difluoro 15',20'-dihydrovinorelbine] | 45 | 68 | 40 | 70 | 44 | 2500 |  |
| CC[C@]12C=CCN3CC[C@@]4(c5cc([C@@]6(C(=O)OC)C[C@@H]7CC(C(C)(F)F)CN(CCc8c6[nH]c6ccccc86)C7)c(OC)cc5N(C)[C@H]4[C@@](O)(C(=O)OC)[C@@H]1OC(C)=O)[C@@H]32 (stereo partly drawn) [Example 5, 20'-deoxy 19',19'-difluorovinblastine] | 15 | 36 |  | 50 | 27 | 8900 |  |
| CC[C@]12C=CCN3CC[C@@]4(c5cc([C@@]6(C(=O)OC)C[C@@H]7CC(C(C)(F)F)CN(Cc8c6[nH]c6ccccc86)C7)c(OC)cc5N(C)[C@H]4[C@@](O)(C(=O)OC)[C@@H]1O)[C@@H]32 (stereo partly drawn) [Example 11, 17-deacetyl 19',19'-difluoro 15',20'-dihydrovinorelbine] | 60 | 45 |  | 51 | 30 | 2900 |  |
| CC[C@]12C=CCN3CC[C@@]4(c5cc([C@@]6(C(=O)OC)C[C@@H]7CC(C(C)(F)F)CN(CCc8c6[nH]c6ccccc86)C7)c(OC)cc5N(C)[C@H]4[C@@](O)(C(=O)OC)[C@@H]1O)[C@@H]32 (stereo partly drawn) [Example 12, 17-deacetyl 20'-deoxy 19',19'-difluorovinblastine] | 0 | 36 |  | 72 | 27 | 4200 |  |
| CC[C@]1(O)C[C@@H]2CN(CCc3c([nH]c4ccccc34)[C@@](C(=O)OC)(c3cc4c(cc3OC)N(C)[C@H]3[C@@](O)(C(=O)OC)[C@H](OC(C)=O)[C@]5(CC)C=CCN6CC[C@]43[C@@H]65)C2)C1 [VINBLASTINE, vinblastine, reference compound] |  |  |  |  |  | […] | devoid of activity |
| CCC1=C[C@@H]2CN(C1)Cc1c([nH]c3ccccc13)[C@@](C(=O)OC)(c1cc3c(cc1OC)N(C)[C@H]1[C@@](O)(C(=O)OC)[C@H](OC(C)=O)[C@]4(CC)C=CCN5CC[C@]31[C@@H]54)C2 [VINORELBINE, vinorelbine, reference compound] | 14 | 50 |  | 62 | 16 |  | devoid of activity |
| CC[C@]1(O)C[C@@H]2CN(CCc3c([nH]c4ccccc34)[C@@](C(=O)OC)(c3cc4c(cc3OC)N(C=O)[C@H]3[C@@](O)(C(=O)OC)[C@H](OC(C)=O)[C@]5(CC)C=CCN6CC[C@]43[C@@H]65)C2)C1 [vincristine] |  |  |  |  |  |  | devoid of activity |
| CC[C@]1(O)C[C@@H]2CN(CCc3c([nH]c4ccccc34)[C@@](C(=O)OC)(c3cc4c(cc3OC)N(C)[C@H]3[C@@](O)(C(N)=O)[C@H](O)[C@]5(CC)C=CCN6CC[C@]43[C@@H]65)C2)C1 [vindesine] |  |  |  |  |  |  | devoid of activity |

Source: patent US5620985A, “Antimitotic binary alkaloid derivatives from catharanthus roseus” (Pierre Fabre Medicament, priority 1993, dated 1997)
